In patent US20230381178A1, “METHODS FOR IMPROVING RENAL FUNCTION WITH A COMBINATION OF A BET BROMODOMAIN INHIBITOR AND A SODIUM DEPENDENT GLUCOSE TRANSPORT 2 INHIBITOR” (Resverlogix Corp., priority 2020, published 2023):

Assays:
[1] = BETonMACE Phase 3 trial post-hoc analysis: eGFR (Cockcroft-Gault, serum creatinine) from baseline to last visit on treatment; format: in vivo, human
Method: Apabetalone (RVX-208) was evaluated in a recently completed clinical Phase 3 trial (BETonMACE; NCT02586155) for the effect on MACE in type 2 diabetes patients with low HDL cholesterol (below 40 mg/dL for males and below 45 mg/dL for females) and a recent acute coronary syndrome (ACS) (preceding 7-90 days). All patients received high intensity statin treatment or maximum tolerated statin treatment, which was 20-40 mg daily or a maximum daily dose of 40 mg for rosuvastatin or 40-80 mg daily or a maximum daily dose of 80 mg for atorvastatin.
Patients (n=2425) with ACS in the preceding 7 to 90 days, with type 2 diabetes and low HDL cholesterol (≤40 mg/dl for men, <45 mg/dl for women), receiving intensive or maximum-tolerated therapy with atorvastatin or rosuvastatin, were assigned in double-blind fashion to receive apabetalone 100 mg orally twice daily or matching placebo. Baseline characteristics include female sex (25%), myocardial infarction as index ACS event(74%), coronary revascularization for index ACS (76%), treatment with dual anti-platelet therapy (87%) and renin-angiotensin system inhibitors (91%), median LDL cholesterol 65 mg per deciliter, and median HbA1c 7.3%. The primary efficacy measure is time to first occurrence of cardiovascular death, non-fatal myocardial infarction, or stroke. The study enrolled 2425 patients and the MACE outcome population consisted of 2418 patients.
In the BETonMACE clinical study, a total of N=298 patients (N=150 in RVX-208 treatment group and N=148 in placebo treatment group) were administered an SGLT2 inhibitor (empagliflozin, dapagliflozin, or canagliflozin) in addition to RVX-208 with specified statin therapy (atorvastatin and rosuvastatin) and other guideline-defined treatments. Specifically, a total of 150 patients received both RVX-208 and an SGLT2 inhibitor; a total of 148 received an SGLT2 inhibitor, but no RVX-208; a total of 1062 received RVX-208, but no SGLT2 inhibitor; a total of 1058 received neither RVX-208 or an SGLT2 inhibitor.
Patients who were randomized and received at least one dose of SGLT2 treatment while actively receiving study drug (RVX-208 or placebo) were counted as those receiving a combination of SGLT2 treatment with either RVX-208 or placebo. Patients receiving more than one drug therapy within the SGLT2 inhibitor class were counted only once based upon whichever drug therapy patients continued taking at the end of treatment with study drug (RVX-208 or placebo). In cases where patients were receiving more than one drug therapy within the SGLT2 inhibitor class at the end of treatment with study drug, whichever SGLT2 inhibitor therapy was received for longer was counted.
Estimated glomerular filtration rate (eGFR) was calculated by the central lab using serum creatinine values and the Cockcroft-Gault formula. Serum creatinine was collected as part of the chemistry panel at the following time points: baseline, week 24, week 52, week 76, week 100, and last visit on treatment (LVT). The Cockcroft-Gault formula requires the input of an individual's age, sex, and weight. The last visit on treatment (LVT) timepoint represented the longest study exposure duration for patients receiving RVX-208 or placebo with and without SGLT2 inhibitors and is the focus of this analysis. The median time to LVT (and study drug exposure) for patients with a baseline and LVT measurements for eGFR administered an SGLT2 inhibitor (N=298) was 742 days (2.03 years). For the patients treated with a SGLT2 inhibitor and RVX-208 (N=150), the median time to LVT was 748 days (2.05 years) and for the patients treated with a SGLT2 inhibitor and received placebo (N=148), the median time to LVT was 734 days (2.01 years). No statistical difference was observed between the duration of study drug exposure, indicating a balance was observed between treatment groups. At the LVT timepoint, a total of N=121 patients in the apabetalone treatment group and N=122 patients in the placebo group had eGFR measurements. […]

[2] = BETonMACE, T2DM patients with a recent ACS (Ray et al. 2020); cited from earlier work
[3] = patients with established cardiovascular disease and eGFR<60 mL/min/1.73 m^2; monotherapy; p=0.04 vs. baseline (Kulikowski et al 2017); cited from earlier work

## COc1cc(OC)c2c(=O)[nH]c(-c3cc(C)c(OCCO)c(C)c3)nc2c1 [RVX-208, 2-(4-(2-hydroxyethoxy)-3,5-dimethylphenyl)-5,7-dimethoxyquinazolin-4(3H)-one]
[1]; BETonMACE post-hoc, T2DM patients with a recent ACS
  effect on eGFR / renal function: not able to increase median or mean eGFR levels
[1]; T2DM patients with recent ACS, on statin, RVX-208 100 mg orally twice daily where given, at LVT (median about 2 years)
  median eGFR at last visit on treatment (LVT): 96 mL/min
[1]; T2DM patients with recent ACS, on statin, at baseline
  median eGFR at baseline: 97 mL/min
[1]; T2DM patients with recent ACS, FIG. 3
  median change of eGFR from baseline to LVT: −3.2 mL/min/1.73 m^2
[1]; T2DM patients with recent ACS, FIG. 4
  mean change of eGFR from baseline to LVT: −3.3 mL/min/1.73 m^2
[1]; eGFR difference baseline to LVT divided by number of treatment days, monotherapy groups
  median eGFR slope from baseline to LVT: −0.004
[2]
  effect on eGFR versus placebo: did not demonstrate the ability to statistically improve eGFR versus placebo
[3]
  increase in eGFR: 3.4%
